# Measured values reported in patent publication US8772343B2, “Chemical compounds” (Pfizer Limited, priority 2010, dated 2014).
# Target: T1, Nav1.7 (or SCN9A) channel (Homo sapiens, UniProt Q15858)
# T1 construct: expressed in transfected cells
# Assay: Nav1.7 PatchXpress automated whole-cell electrophysiology in HEK cells expressing hSCN9A
# Assay type: cell-based
# Settings: estimated IC50 from single point data, PatchXpress assay, held at V1/2 of inactivation, read-out: Nav1.7 EIC50
# Description: The ability of the compounds of formula (I) to block the Nav1.7 (or SCN9A) channel were measured using the assay described below.
# Human Embryonic Kidney (HEK) cells were transfected with an hSCN9A construct using lipofectamine reagent (Invitrogen), using standard techniques. Cells stably expressing the hSCN9A constructs were identified by their resistance to G-418 (400 μg/ml). Clones were screened for expression using the whole-cell voltage-clamp technique.
# HEK cells stably transfected with hSCN9A were maintained in DMEM medium supplemented with 10% heat-inactivated fetal bovine serum and 400 μg/ml G-418 in an incubator at 37° C. with a humidified atmosphere of 10% CO2. For HTS, cells were harvested from flasks by trypsinization and replated in an appropriate multi-well plate (typically 96 or 384 wells/plate) such that confluence would be achieved within 24 hours of plating. For electrophysiological studies, cells were removed from the culture flask by brief trypsinization and re-plated at low density onto glass cover slips. Cells were typically used for electrophysiological experiments within 24 to 72 hours after plating.
# Cover slips containing HEK cells expressing hSCN9A were placed in a bath on the stage of an inverted microscope and perfused (approximately 1 ml/minutes) with extracellular solution of the following composition: 138 mM NaCl, 2 mM CaCl2, 5.4 mM KCl, 1 mM MgCl2, 10 mM glucose, and 10 mM HEPES, pH 7.4, with NaOH. […] The osmolarity of the extracellular and intracellular solutions was 300 mOsm/kg and 295 mOsm/kg, respectively. All recordings were made at room temperature (22-24° C.) using AXOPATCH 200B amplifiers and PCLAMP software (Axon Instruments, Burlingame, Calif.).
# hSCN9A currents in HEK cells were measured using the whole-cell configuration of the patch-clamp technique (Hamill et al., 1981). Uncompensated series resistance was typically 2 to 5 mega ohms and >85% series resistance compensation was routinely achieved. As a result, voltage errors were negligible and no correction was applied. Current records were acquired at 20 to 50 KHz and filtered at 5 to 10 KHz.
# HEK cells stably transfected with hSCN9A were viewed under Hoffman contrast optics and placed in front of an array of flow pipes emitting either control or compound-containing extracellular solutions. All compounds were dissolved in dimethyl sulfoxide to make 10 mM stock solutions, which were then diluted into extracellular solution to attain the final concentrations desired. […] The voltage-dependence of inactivation was determined by applying a series of depolarizing prepulses (8 sec long in 10 mV increments) from a negative holding potential. The voltage was then immediately stepped to 0 mV to assess the magnitude of the sodium current. Currents elicited at 0 mV were plotted as a function of prepulse potential to allow estimation of the voltage at which 50% of the channels were inactivated (midpoint of inactivation or V1/2). Compounds were tested for their ability to inhibit hSCN9A sodium channels by activating the channel with a 20 msec voltage step to 0 mV following an 8 second conditioning prepulse to the empirically determined V1/2. Compound effect (% inhibition) was determined by difference in current amplitude before and after application of test compounds. For ease of comparison, “estimated IC-50” (EIC50) values were calculated from single point electrophysiology data by the following equation, (tested concentration, uM)×(100-% inhibition/% inhibition). Inhibition values<20% and >80% were excluded from the calculation.
# Electrophysiological assays were conducted with PatchXpress 7000 hardware and associated software (Molecular Devices Corp). All assay buffers and solutions were identical to those used in conventional whole-cell voltage clamp experiments described above. hSCN9A cells were grown as above to 50%-80% confluency and harvested by trypsinization. […]
# T1 sequence (Q15858 whole entry): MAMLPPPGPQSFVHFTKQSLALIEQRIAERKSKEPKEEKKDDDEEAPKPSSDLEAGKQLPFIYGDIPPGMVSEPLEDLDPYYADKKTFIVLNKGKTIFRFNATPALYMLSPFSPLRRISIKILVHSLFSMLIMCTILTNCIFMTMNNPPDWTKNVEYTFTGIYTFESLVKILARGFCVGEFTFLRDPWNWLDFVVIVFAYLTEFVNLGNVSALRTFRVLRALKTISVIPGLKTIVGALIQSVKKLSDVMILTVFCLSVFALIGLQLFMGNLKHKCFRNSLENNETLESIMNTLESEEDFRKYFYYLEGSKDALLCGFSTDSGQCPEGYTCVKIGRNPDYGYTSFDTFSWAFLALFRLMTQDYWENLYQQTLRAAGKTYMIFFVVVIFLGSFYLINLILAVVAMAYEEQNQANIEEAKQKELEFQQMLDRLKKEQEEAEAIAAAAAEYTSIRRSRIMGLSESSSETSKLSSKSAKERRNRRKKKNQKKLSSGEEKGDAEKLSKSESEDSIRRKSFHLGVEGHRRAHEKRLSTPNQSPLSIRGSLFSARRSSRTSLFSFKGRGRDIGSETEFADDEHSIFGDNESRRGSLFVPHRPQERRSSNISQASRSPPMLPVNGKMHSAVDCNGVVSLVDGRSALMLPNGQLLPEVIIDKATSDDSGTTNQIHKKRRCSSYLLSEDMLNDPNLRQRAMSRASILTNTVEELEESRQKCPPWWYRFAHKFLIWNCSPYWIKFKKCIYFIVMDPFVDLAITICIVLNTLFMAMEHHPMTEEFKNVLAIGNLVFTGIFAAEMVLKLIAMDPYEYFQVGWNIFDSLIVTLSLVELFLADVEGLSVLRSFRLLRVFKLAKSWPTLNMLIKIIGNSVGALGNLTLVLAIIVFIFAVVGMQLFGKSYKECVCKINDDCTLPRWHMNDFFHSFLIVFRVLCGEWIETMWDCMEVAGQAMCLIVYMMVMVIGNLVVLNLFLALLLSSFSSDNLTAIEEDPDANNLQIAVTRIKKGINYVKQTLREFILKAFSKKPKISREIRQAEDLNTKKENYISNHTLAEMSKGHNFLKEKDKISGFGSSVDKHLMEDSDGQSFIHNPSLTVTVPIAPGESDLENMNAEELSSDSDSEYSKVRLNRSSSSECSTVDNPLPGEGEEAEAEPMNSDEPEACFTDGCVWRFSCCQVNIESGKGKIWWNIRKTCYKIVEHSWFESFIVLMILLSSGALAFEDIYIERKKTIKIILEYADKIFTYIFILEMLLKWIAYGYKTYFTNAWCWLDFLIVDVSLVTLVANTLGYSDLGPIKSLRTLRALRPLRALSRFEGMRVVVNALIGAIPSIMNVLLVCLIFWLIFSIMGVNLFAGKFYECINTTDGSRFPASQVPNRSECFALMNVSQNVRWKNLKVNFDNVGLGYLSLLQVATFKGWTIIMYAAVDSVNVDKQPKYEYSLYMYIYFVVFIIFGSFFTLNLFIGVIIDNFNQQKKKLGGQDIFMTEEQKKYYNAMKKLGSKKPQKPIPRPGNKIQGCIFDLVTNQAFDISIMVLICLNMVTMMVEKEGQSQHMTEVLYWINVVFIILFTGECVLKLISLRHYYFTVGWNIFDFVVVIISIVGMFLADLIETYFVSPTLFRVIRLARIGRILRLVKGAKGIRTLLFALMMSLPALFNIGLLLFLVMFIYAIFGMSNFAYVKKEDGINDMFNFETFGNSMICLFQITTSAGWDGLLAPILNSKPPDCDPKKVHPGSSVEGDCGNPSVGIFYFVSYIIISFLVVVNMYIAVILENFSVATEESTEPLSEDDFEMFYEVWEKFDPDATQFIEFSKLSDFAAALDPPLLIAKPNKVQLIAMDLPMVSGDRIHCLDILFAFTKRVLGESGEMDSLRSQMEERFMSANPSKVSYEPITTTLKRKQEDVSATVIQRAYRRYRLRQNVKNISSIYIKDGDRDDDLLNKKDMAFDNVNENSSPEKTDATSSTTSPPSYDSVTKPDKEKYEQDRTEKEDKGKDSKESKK
row,Compound,IC50 [nM]
1,"COc1ncccc1-c1cc(C(=O)NS(C)(=O)=O)ccc1Oc1cccc(C(F)(F)F)c1 [Example 61, 3-(2-methoxypyridin-3-yl)-N-(methylsulfonyl)-4-[3-(trifluoromethyl)phenoxy]benzamide]",66
2,"COCc1ccc(Oc2ccc(C(=O)NS(C)(=O)=O)cc2-c2cccnc2OC)cc1 [Example 62, 4-[4-(methoxymethyl)phenoxy]-3-(2-methoxypyridin-3-yl)-N-(methylsulfonyl)benzamide]",1200
3,"CCc1ccc(Oc2ccc(C(=O)NS(C)(=O)=O)cc2-c2cccnc2OC)cn1 [Example 63, 4-[(6-ethylpyridin-3-yl)oxy]-3-(2-methoxypyridin-3-yl)-N-(methylsulfonyl)benzamide]",3900
4,"COc1ccc(Oc2ccc(C(=O)NS(C)(=O)=O)cc2-c2cccnc2OC)cc1 [Example 65, 4-(4-methoxyphenoxy)-3-(2-methoxypyridin-3-yl)-N-(methylsulfonyl)benzamide]",640
5,"COc1ncccc1-c1cc(C(=O)NS(C)(=O)=O)ccc1Oc1cccc(OC(F)(F)F)c1 [Example 68, 3-(2-methoxypyridin-3-yl)-N-(methylsulfonyl)-4-[3-(trifluoromethoxy)phenoxy]benzamide]",83
6,"COc1ccc(Oc2ccc(C(=O)NS(C)(=O)=O)cc2-c2cccnc2OC)cn1 [Example 70, 3-(2-methoxypyridin-3-yl)-4-[(6-methoxypyridin-3-yl)oxy]-N-(methylsulfonyl)benzamide]",2200
7,"COc1ncccc1-c1cc(C(=O)NS(C)(=O)=O)ccc1Oc1cccc(C#N)c1 [Example 71, 4-(3-cyanophenoxy)-3-(2-methoxypyridin-3-yl)-N-(methylsulfonyl)benzamide]",2500
8,"COc1ncccc1-c1cc(C(=O)NS(C)(=O)=O)ccc1Oc1cc(F)cc(C(F)(F)F)c1 [Example 72, 4-[3-fluoro-5-(trifluoromethyl)phenoxy]-3-(2-methoxypyridin-3-yl)-N-(methylsulfonyl)benzamide]",100
9,"COc1ncccc1-c1cc(C(=O)NS(C)(=O)=O)ccc1Oc1ccc(C)cc1 [Example 73, 3-(2-methoxypyridin-3-yl)-4-(4-methylphenoxy)-N-(methylsulfonyl)benzamide]",170
10,"CCc1ccc(Oc2ccc(C(=O)NS(C)(=O)=O)cc2-c2cccnc2OC)cc1 [Example 77, 4-(4-ethylphenoxy)-3-(2-methoxypyridin-3-yl)-N-(methylsulfonyl)benzamide]",< 1000
11,"CCOc1ccc(Oc2ccc(C(=O)NS(C)(=O)=O)cc2-c2cccnc2OC)cc1 [Example 83, 4-(4-ethoxyphenoxy)-3-(2-methoxypyridin-3-yl)-N-(methylsulfonyl)benzamide]",490
12,"CCOc1cccc(Oc2ccc(C(=O)NS(C)(=O)=O)cc2-c2cccnc2OC)c1 [Example 84, 4-(3-ethoxyphenoxy)-3-(2-methoxypyridin-3-yl)-N-(methylsulfonyl)benzamide]",490
13,"COc1cccc(Oc2ccc(C(=O)NS(C)(=O)=O)cc2-c2cccnc2OC)c1 [Example 85, 4-(3-methoxyphenoxy)-3-(2-methoxypyridin-3-yl)-N-(methylsulfonyl)benzamide]",640
14,"COc1ncccc1-c1cc(C(=O)NS(C)(=O)=O)ccc1Oc1ccc(C(F)(F)F)cc1 [Example 87, 3-(2-methoxypyridin-3-yl)-N-(methylsulfonyl)-4-[4-(trifluoromethyl)phenoxy]benzamide]",86
15,"COc1ncccc1-c1cc(C(=O)NS(C)(=O)=O)ccc1Oc1ccc(C#N)c(Cl)c1 [Example 88, 4-(3-chloro-4-cyanophenoxy)-3-(2-methoxypyridin-3-yl)-N-(methylsulfonyl)benzamide]",2500
16,"CCc1cccc(Oc2ccc(C(=O)NS(C)(=O)=O)cc2-c2cccnc2OC)c1 [Example 89, 4-(3-ethylphenoxy)-3-(2-methoxypyridin-3-yl)-N-(methylsulfonyl)benzamide]",160
17,"COc1ncccc1-c1cc(C(=O)NS(C)(=O)=O)ccc1Oc1cncc(Cl)c1 [Example 90, 4-[(5-chloropyridin-3-yl)oxy]-3-(2-methoxypyridin-3-yl)-N-(methylsulfonyl)benzamide]",1400

# Other lines, results leading:
row,IC50 [nM],Compound
1,540,"COc1ncccc1-c1cc(C(=O)NS(C)(=O)=O)ccc1Oc1ccc(Cl)cc1F [Example 64, 4-(4-chloro-2-fluorophenoxy)-3-(2-methoxypyridin-3-yl)-N-(methylsulfonyl)benzamide]"
2,98,"COc1ncccc1-c1cc(C(=O)NS(C)(=O)=O)ccc1Oc1ccc(Cl)c(F)c1 [Example 66, 4-(4-chloro-3-fluorophenoxy)-3-(2-methoxypyridin-3-yl)-N-(methylsulfonyl)benzamide]"
3,2800,"CCOc1ccccc1Oc1ccc(C(=O)NS(C)(=O)=O)cc1-c1cccnc1OC [Example 67, 4-(2-ethoxyphenoxy)-3-(2-methoxypyridin-3-yl)-N-(methylsulfonyl)benzamide]"
4,440,"COc1ncccc1-c1cc(C(=O)NS(C)(=O)=O)ccc1Oc1cc(F)cc(F)c1 [Example 69, 4-(3,5-difluorophenoxy)-3-(2-methoxypyridin-3-yl)-N-(methylsulfonyl)benzamide]"
5,1900,"COc1ncccc1-c1cc(C(=O)NS(C)(=O)=O)ccc1Oc1cccc(F)c1F [Example 74, 4-(2,3-difluorophenoxy)-3-(2-methoxypyridin-3-yl)-N-(methylsulfonyl)benzamide]"
6,310,"COc1ccc(Oc2ccc(C(=O)NS(C)(=O)=O)cc2-c2cccnc2OC)cc1Cl [Example 75, 4-(3-chloro-4-methoxyphenoxy)-3-(2-methoxypyridin-3-yl)-N-(methylsulfonyl)benzamide]"
7,> 1000,"COc1ncccc1-c1cc(C(=O)NS(C)(=O)=O)ccc1Oc1ccc(Cl)cn1 [Example 76, 4-[(5-chloropyridin-2-yl)oxy]-3-(2-methoxypyridin-3-yl)-N-(methylsulfonyl)benzamide]"
8,150,"COc1ncccc1-c1cc(C(=O)NS(C)(=O)=O)ccc1Oc1ccc(F)c(C(F)(F)F)c1 [Example 78, 4-[4-fluoro-3-(trifluoromethyl)phenoxy]-3-(2-methoxypyridin-3-yl)-N-(methylsulfonyl)benzamide]"
9,2400,"COc1ccc(Oc2ccc(C(=O)NS(C)(=O)=O)cc2-c2cccnc2OC)c(F)c1 [Example 79, 4-(2-fluoro-4-methoxyphenoxy)-3-(2-methoxypyridin-3-yl)-N-(methylsulfonyl)benzamide]"
10,> 1000,"CCc1ccccc1Oc1ccc(C(=O)NS(C)(=O)=O)cc1-c1cccnc1OC [Example 80, 4-(2-ethylphenoxy)-3-(2-methoxypyridin-3-yl)-N-(methylsulfonyl)benzamide]"
11,1100,"COc1ncccc1-c1cc(C(=O)NS(C)(=O)=O)ccc1Oc1cccc(C(F)(F)F)c1F [Example 81, 4-[2-fluoro-3-(trifluoromethyl)phenoxy]-3-(2-methoxypyridin-3-yl)-N-(methylsulfonyl)benzamide]"
12,> 1000,"COc1ncccc1-c1cc(C(=O)NS(C)(=O)=O)ccc1Oc1ccccc1C(F)(F)F [Example 82, 3-(2-methoxypyridin-3-yl)-N-(methylsulfonyl)-4-[2-(trifluoromethyl)phenoxy]benzamide]"
13,1100,"COc1ncccc1-c1cc(C(=O)NS(C)(=O)=O)ccc1Oc1ccc(F)cc1F [Example 86, 4-(2,4-difluorophenoxy)-3-(2-methoxypyridin-3-yl)-N-(methylsulfonyl)benzamide]"
